Activity calls are given as the source filed them.
Assays:
Protein Wnt-3a = Protein Wnt-3a (Mus musculus, UniProt P27467); test: Wnt3a-driven reporter signaling inhibition, dose response, selectivity assay for Gli-SUFU antagonist project, Wnt-LIGHT cells, luminescence (AID 651570); type: functional; settings: read-out: IC50_Mean;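 further: Wnt-LIGHT reporter cells stimulated with conditioned medium from Wnt3a-producing cells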
INS1 = test: beta cell apoptosis inhibitors, cytokine rescue, dose response, luminescence, retest (AID 449756); type: functional, cell-based; settings: Rattus norvegicus, INS1;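 further: cell death triggered by IL-1 beta plus TNF-alpha plus IFN-gamma mixture; protective hits raise ATP signal compared with cytokine alone wells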
cells [1] = type: functional, cell-based
cells [2] = type: functional, cell-based; remark: listed apart in the source
[3] = molecular target: T1, Trace amine-associated receptor 1 (Homo sapiens, UniProt Q96RJ0); test: Counterscreen for agonists of the human trace amine associated receptor 1 (hTAAR1): Fluorescence-based cell-based high throughput dose response assay to identify hTAAR1 agonist that also desensitize TAAR1 receptor response.; type: functional
T1 sequence (Q96RJ0 whole entry): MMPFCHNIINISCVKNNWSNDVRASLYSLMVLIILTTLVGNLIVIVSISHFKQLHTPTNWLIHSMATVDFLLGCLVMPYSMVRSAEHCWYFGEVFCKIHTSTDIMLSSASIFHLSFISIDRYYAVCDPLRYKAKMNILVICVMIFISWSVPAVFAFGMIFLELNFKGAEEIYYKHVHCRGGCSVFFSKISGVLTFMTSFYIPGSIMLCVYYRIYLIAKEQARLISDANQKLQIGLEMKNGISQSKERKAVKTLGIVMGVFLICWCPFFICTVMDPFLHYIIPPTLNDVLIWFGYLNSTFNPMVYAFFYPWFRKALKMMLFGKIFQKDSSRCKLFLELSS

[4] = molecular target: T1, Trace amine-associated receptor 1; test: Fluorescence-based cell-based high throughput dose response assay to identify agonists of the human trace amine associated receptor 1 (TAAR1).; type: functional
[5] = nonselective inhibitors of cellular cAMP signaling, dose response, counter-screen for MC4R biased antagonist project, cell-based, TR-FRET cAMP detection (AID 602305); type: functional;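 further: U2OS cells stimulated with forskolin near its EC80 as the cAMP inducer; potency is for inhibition of forskolin-stimulated cAMP signaling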
Melanocortin receptor 4 = Melanocortin receptor 4 (Homo sapiens, UniProt P32245); test: MC4R antagonist potency on cAMP, dose response, cell-based, TR-FRET, biased antagonists (AID 602298); type: functional;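 further: antagonist potency against agonist-stimulated cAMP production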
Chain of Melanocortin receptor 4 (P32245 whole entry): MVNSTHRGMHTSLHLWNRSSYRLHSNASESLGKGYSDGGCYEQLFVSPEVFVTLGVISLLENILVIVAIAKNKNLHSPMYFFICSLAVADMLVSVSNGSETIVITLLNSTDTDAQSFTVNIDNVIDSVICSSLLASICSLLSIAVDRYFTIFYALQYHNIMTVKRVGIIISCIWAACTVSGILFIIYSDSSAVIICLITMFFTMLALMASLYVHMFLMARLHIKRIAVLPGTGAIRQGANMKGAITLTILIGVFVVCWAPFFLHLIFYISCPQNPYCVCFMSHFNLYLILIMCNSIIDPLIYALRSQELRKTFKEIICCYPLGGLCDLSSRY

[6] = molecular target: T2, Apoptotic protease-activating factor 1 (Homo sapiens, UniProt O14727); type: functional
T2 sequence (O14727 whole entry): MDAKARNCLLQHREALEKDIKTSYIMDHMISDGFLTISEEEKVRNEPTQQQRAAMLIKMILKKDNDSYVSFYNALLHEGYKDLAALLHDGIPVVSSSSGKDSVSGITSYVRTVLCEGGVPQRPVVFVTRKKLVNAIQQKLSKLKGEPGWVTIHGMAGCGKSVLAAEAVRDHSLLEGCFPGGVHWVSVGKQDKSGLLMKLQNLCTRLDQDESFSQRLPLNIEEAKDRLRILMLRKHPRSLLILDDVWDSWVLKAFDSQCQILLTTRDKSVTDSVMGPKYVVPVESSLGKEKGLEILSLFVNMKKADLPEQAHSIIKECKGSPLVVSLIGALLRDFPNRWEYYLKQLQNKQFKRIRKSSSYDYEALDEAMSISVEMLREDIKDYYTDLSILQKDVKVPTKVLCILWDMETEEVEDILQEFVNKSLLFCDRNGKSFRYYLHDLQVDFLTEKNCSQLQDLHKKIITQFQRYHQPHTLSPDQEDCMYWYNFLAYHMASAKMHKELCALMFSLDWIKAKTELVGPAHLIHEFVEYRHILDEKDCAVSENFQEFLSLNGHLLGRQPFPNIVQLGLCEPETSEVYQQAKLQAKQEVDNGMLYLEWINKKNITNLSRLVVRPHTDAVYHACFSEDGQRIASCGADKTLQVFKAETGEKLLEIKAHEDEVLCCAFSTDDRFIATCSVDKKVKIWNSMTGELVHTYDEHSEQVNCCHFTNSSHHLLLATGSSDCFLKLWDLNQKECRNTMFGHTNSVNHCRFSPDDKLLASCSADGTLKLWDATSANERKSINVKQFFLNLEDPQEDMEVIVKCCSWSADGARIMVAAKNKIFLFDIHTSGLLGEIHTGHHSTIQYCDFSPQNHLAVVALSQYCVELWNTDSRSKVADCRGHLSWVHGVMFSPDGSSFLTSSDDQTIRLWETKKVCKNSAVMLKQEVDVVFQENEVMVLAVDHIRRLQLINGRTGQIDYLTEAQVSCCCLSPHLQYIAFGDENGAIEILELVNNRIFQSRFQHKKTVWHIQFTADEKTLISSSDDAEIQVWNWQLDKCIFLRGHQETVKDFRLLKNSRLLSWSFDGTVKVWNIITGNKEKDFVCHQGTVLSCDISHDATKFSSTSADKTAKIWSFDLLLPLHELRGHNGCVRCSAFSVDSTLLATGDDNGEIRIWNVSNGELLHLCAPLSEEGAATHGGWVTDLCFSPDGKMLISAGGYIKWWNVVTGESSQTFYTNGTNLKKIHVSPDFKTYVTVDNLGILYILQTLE

Vero = Vero cell cytotoxicity, cytotoxicity control for flavivirus capping enzyme inhibitors (AID 588742); type: functional; settings: Chlorocebus sabaeus
[7] = tested on: Streptococcus sp. 'group A'; test: growth inhibition of control SK(-) GAS strain, dose response, counter-screen for streptokinase expression inhibitor project, luminescence, kanamycin, BacTiterGlo, confirmation (AID 1900); type: functional, organism-based
Genome polyprotein = Genome polyprotein (dengue virus type 2, UniProt P29990); test: Dengue-2 NS5 methyltransferase inhibitors, primary screen, biochemical, confirmation dose response (AID 588689); type: functional
Chain of Genome polyprotein (P29990 2492-3391 limits assumed): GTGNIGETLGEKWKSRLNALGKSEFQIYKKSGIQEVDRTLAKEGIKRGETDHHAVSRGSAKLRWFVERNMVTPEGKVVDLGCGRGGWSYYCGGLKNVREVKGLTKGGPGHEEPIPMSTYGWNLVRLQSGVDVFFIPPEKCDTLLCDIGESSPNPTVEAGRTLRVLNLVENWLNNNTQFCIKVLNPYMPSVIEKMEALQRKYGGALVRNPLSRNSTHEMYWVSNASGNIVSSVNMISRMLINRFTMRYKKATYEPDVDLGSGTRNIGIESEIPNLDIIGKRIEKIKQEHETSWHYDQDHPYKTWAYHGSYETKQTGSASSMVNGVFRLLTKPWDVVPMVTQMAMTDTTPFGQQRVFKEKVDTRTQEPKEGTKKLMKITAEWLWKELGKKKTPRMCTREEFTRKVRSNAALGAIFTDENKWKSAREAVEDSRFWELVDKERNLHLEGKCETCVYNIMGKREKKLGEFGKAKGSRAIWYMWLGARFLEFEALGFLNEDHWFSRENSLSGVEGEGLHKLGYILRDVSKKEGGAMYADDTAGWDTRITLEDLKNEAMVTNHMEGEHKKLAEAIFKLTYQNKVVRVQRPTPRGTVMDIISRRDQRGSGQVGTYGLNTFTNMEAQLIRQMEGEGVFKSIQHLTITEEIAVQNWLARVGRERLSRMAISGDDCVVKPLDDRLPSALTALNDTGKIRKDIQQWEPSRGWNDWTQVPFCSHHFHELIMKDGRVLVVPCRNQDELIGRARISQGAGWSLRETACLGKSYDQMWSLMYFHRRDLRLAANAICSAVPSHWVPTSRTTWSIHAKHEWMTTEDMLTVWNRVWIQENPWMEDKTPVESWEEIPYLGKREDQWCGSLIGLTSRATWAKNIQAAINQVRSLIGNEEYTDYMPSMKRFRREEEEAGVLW

[8] = molecular target: Eukaryotic translation initiation factor 4E (Mus musculus, UniProt P63073); test: eIF4E–eIF4G protein interaction inhibitors, dose response, biochemical, TR-FRET (AID 855); type: functional;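 further: potency for disrupting eIF4E binding to eIF4GI seen as loss of FRET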
Chain of Eukaryotic translation initiation factor 4E (P63073 whole entry): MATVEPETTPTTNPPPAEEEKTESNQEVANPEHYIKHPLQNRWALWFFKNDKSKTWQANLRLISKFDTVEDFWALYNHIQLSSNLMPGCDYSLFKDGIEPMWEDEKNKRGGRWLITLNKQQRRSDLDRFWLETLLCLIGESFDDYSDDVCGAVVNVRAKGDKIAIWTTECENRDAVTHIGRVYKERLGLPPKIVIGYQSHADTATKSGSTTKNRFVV

Aminopeptidase N = molecular target: T3, Aminopeptidase N (Plasmodium falciparum FcB1/Columbia, UniProt O96935); test: P. falciparum M1AAP inhibitors, biochemical, fluorogenic H-Leu-NHMec substrate, 1536-well (AID 1445); design: species or system Plasmodium falciparum 3D7, 3D7
T3 sequence (O96935 whole entry): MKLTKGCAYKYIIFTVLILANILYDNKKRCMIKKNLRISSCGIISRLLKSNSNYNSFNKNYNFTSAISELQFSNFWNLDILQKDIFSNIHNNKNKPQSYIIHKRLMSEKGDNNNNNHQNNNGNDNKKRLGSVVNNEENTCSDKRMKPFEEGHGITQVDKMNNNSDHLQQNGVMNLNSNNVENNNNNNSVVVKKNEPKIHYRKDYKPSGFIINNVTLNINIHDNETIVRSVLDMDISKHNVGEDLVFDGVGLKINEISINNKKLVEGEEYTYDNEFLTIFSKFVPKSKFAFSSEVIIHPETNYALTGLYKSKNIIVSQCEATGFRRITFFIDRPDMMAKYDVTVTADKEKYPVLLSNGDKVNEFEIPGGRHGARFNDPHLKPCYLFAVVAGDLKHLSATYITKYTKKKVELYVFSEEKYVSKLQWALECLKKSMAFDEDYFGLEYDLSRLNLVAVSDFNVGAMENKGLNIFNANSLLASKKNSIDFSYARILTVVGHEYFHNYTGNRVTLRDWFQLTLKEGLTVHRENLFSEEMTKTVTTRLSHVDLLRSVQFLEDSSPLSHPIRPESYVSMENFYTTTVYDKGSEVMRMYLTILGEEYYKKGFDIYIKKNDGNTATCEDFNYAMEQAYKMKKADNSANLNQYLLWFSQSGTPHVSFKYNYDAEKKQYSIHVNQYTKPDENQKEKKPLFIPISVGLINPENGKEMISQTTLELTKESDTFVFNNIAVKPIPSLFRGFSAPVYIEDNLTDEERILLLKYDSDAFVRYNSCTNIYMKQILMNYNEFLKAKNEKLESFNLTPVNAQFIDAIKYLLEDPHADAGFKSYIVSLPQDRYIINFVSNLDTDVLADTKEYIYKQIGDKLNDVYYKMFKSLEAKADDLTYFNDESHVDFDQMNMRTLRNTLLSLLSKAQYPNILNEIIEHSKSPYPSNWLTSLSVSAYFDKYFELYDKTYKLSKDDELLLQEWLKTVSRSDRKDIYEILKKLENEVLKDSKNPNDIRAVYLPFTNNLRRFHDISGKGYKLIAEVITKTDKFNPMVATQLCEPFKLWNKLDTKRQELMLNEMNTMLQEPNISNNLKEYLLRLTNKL

Streptococcus = test: Group A Streptococcus viability loss, dose response, counter-screen for streptokinase expression inhibitor project, luminescence, BacTiterGlo (AID 1915); type: functional, organism-based;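 further: potency for reduction of bacterial viability or growth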
Streptokinase A = molecular target: T4, Streptokinase A (Streptococcus pyogenes serotype M1, UniProt P10520); test: S. pyogenes streptokinase expression inhibitors, potency, dose response, plasminogen activation absorbance, OD405 (AID 1914); type: functional, Streptococcus pyogenes M1 GAS;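 further: secreted streptokinase activity via plasminogen activation per viability signal from cell pellet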
T4 sequence (P10520 whole entry): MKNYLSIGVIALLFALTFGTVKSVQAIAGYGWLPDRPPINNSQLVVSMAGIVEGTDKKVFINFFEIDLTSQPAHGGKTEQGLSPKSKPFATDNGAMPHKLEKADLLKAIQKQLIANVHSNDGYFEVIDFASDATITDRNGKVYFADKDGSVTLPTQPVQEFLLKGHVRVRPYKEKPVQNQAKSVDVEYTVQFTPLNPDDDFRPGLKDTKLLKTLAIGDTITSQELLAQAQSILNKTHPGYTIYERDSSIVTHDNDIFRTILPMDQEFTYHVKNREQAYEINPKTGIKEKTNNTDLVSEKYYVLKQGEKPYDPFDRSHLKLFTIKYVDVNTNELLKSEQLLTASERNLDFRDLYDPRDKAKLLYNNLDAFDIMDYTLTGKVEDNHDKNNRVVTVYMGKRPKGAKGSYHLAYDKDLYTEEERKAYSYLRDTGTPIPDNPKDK

[9] = molecular target: T5, Small ubiquitin-related modifier 1 (Homo sapiens, UniProt P63165); test: inhibitors of SUMO1 partner interactions, dose response, biochemical, FRET (AID 624383); type: functional; settings: read-out: IC50_Mean
T5 sequence (P63165 whole entry): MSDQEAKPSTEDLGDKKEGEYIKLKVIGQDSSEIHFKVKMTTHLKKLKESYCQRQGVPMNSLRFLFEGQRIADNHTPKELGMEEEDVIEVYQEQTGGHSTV

[10] = molecular target: T5, Small ubiquitin-related modifier 1; test: inhibitors of SUMO1 peptide binding, dose response, biochemical, fluorescence polarization, uHTS hits (AID 624382); type: functional; settings: read-out: IC50_Mean
[11] = molecular target: Induced myeloid leukemia cell differentiation protein Mcl-1 (Homo sapiens, UniProt Q07820); type: functional
Chain of Induced myeloid leukemia cell differentiation protein Mcl-1 (Q07820 whole entry): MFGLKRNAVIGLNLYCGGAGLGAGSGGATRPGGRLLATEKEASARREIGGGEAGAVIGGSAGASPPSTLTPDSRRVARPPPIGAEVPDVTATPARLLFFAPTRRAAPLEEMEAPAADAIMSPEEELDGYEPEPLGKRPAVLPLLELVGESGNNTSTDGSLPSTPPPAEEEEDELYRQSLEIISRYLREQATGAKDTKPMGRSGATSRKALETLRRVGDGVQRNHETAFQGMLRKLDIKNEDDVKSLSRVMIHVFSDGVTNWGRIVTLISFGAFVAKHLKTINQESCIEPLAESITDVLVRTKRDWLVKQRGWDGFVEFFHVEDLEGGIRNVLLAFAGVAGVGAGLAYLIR

P388 = test: cells; type: functional; settings: Mus musculus
P388/ADR = test: cells; type: functional; settings: Mus musculus
SN12K1 = test: cells; type: functional; settings: Homo sapiens

Chain of Protein Wnt-3a (P27467 whole entry): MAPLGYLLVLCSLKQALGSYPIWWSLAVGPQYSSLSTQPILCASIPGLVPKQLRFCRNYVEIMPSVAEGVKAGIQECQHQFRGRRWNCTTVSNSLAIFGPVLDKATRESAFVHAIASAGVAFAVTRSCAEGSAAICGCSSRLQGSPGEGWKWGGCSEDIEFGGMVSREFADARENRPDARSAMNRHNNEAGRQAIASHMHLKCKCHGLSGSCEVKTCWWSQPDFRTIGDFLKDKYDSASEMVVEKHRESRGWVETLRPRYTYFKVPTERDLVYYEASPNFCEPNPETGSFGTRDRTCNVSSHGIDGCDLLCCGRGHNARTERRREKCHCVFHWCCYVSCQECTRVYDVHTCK

Compound: O=C(NC(c1cccnc1)C(F)(F)F)c1cc(COc2ccc3c(c2)CCCC3)on1 (stereo unspecified)
- IC50 (Protein Wnt-3a): 40.4 µM (inactive)
- AC50 (INS1): 3.48 µM (active)

Compound: Cc1ccnc(NC(=O)Nc2ccc3c(c2)OCO3)c1
- IC50 (cells [1]): > 29.9 µM (inactive)
- EC50 (cells [2]): > 29.9 µM (inactive)
- IC50 [3]: > 29.9 µM (inactive)
- EC50 [4]: > 29.9 µM (inactive)

Compound: C(#Cc1ccccc1)C[N+]1(CC#Cc2ccccc2)CCCC1
- IC50 (Protein Wnt-3a): 8.34 µM (active)

Compound: O=C(Nc1nc2cc(Cl)ccc2s1)C1CCCN(S(=O)(=O)c2cccc3cccnc23)C1 (stereo unspecified)
- IC50 [5]: > 64.6 µM (inactive)
- IC50 (Melanocortin receptor 4): > 64.6 µM (inactive)

Compound: CCN1CCN(C2=C(NS(=O)(=O)c3ccccc3)C(=O)c3ccccc3C2=O)CC1
- AC50 (INS1): 5.62 µM (active)
- IC50 [6]: 19.1 µM (active)
- CC50 (Vero): 24.8 µM (active)

Compound: CCN(c1ccc(OCC(=O)OCC(=O)c2c(N)n(C)c(=O)n(C)c2=O)cc1)S(=O)(=O)c1ccccc1
- IC50 [5]: > 64.6 µM (inactive)
- IC50 (Melanocortin receptor 4): > 7.18 µM (active)

Compound: Cc1cccc(CCNCc2cc3cc(C)cc(C)c3nc2O)c1
- IC50 (cells [1]): > 29.9 µM (inactive)
- EC50 (cells [2]): > 29.9 µM (inactive)
- IC50 [3]: 1.84 µM (active)
- EC50 [4]: 0.73 µM (active)

Compound: c1ccc(COc2ccc(-c3cc4nc(NCCN5CCOCC5)ccn4n3)cc2)cc1
- IC50 [5]: > 64.6 µM (inactive)
- IC50 (Melanocortin receptor 4): 20 µM (inactive)

Compound: O=C(O)C1CCCCC1C(=O)NCCc1ccc(F)cc1 (stereo unspecified)
- IC50 (cells [1]): > 29.9 µM (inactive)
- EC50 (cells [2]): > 29.9 µM (inactive)
- IC50 [3]: 8.15 µM (active)
- EC50 [4]: 1.39 µM (active)

Compound: CCN1C(=O)/C(=C\c2ccc(-c3ccc([N+](=O)[O-])cc3OC)o2)S/C1=N\c1cccc(C(=O)O)c1
- EC50 [7]: 3.17 µM (active)
- IC50 (Genome polyprotein): 64.5 µM (active)
- IC50 [8]: 50 µM (inactive)
- IC50 (Aminopeptidase N): 2.2 µM (active)
- EC50 (Streptococcus): 8.58 µM (active)
- EC50 (Streptokinase A): > 150 µM (not active)
- IC50 [9]: 25.8 µM (inactive)
- IC50 [10]: > 66.6 µM (inactive)
- CC50 (Vero): > 40 µM (active)
- IC50 [11]: 6.7 µM (active)

Compound: ClCCCN1CCN(CCCl)CC1
- GI50 (P388): 17.7 µM (inactive)
- GI50 (P388/ADR): 27 µM (inactive)
- GI50 (SN12K1): 109 µM (inactive)

Compound: C=C1C(=O)O[C@@H]2[C@H](O)[C@@H](C)[C@@H]3C=CC(=O)[C@@]3(C)[C@H](OC(=O)C=C(C)C)[C@H]12
- GI50 (P388): 0.194 µM (active)
- GI50 (P388/ADR): 0.141 µM (active)
- GI50 (SN12K1): 0.681 µM (active)

Compound: Nc1nc(=O)c2c([nH]1)NCC(CNc1ccc(C(=O)N[C@@H](CCC(=O)O)C(=O)O)cc1)N2C=O (stereo partly specified) [LEUCOVORIN CALCIUM]
- GI50 (P388): > 125 µM (inactive)
- GI50 (P388/ADR): > 124 µM (inactive)
- GI50 (SN12K1): > 125 µM (inactive)

Compound: CCCCCCCCCCCCCCCCCCOP(=O)([O-])OCC[N+](C)(C)C [OCTADECYLPHOSPHONOCHOLINE]
- GI50 (P388): 3.78 µM (inactive)
- GI50 (P388/ADR): 11.1 µM (inactive)
- GI50 (SN12K1): 13.7 µM (inactive)
